IC50 data for 37 compounds are collected here from patent US20060063784A1, “Method of using substituted pyrazolo [1,5-a] pyrimidines” (priority 2004, published 2006).

Bounds are passed on as bounds.

In one test the test system is 80S14 (p21-deficient) cells. Kind of test: Cytotoxicity assay using isogenic cell lines: IC50 in 80S14 (p21-deficient) cells, SRB. It is filed as cell-based, human. Conditions: 80S14 (p21-deficient) cells, 5 days, SRB; class symbols; read-out: IC50 for 80S14. Summed up:
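80S14 (p21-deficient) cells seeded at 12,000 cells/well overnight, then exposed 5 days at 37 °C to serial dilutions (5 pM–50 μM or 170 pg/ml–10 μg/ml). TCA-fixed, sulforhodamine B-stained, absorbance at 560 nm; IC50 taken from cytotoxicity curves versus untreated controls.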
In general, IC50 refers to the point on the concentration scale where inhibition reaches its midpoint. For `CCOC(=O)c1cnn2c(-c3cccc(NC(=O)C4CCC4)c3)ccnc12` [Example 240, Ethyl 7-[3-[(cyclobutylcarbonyl)amino]phenyl]-pyrazolo[1,5-a]pyrimidine-3-carboxylic acid], the IC50 is 10 to 50 µM. As to `C#CCN(C(=O)C1CC1)c1cccc(-c2ccnc3c(C(=O)OCC)cnn23)c1` [Example 258, Ethyl 7-[3-[(cyclopropylcarbonyl)-2-propynylamino]phenyl]-pyrazolo[1,5-a]pyrimidine-3-carboxylic acid], the IC50 lay in the range of 10 to 50 µM. With `CN(C=O)c1cccc(-c2ccnc3c(C(=O)c4cccs4)cnn23)c1` [Example 261, Formamide, N-methyl-N-[3-[3-(2-thienylcarbonyl)pyrazolo[1,5-a]pyrimidin-7-yl]phenyl}], the IC50 is 1 to 10 µM. Regarding `Cc1cc(-c2cccc(NC(=O)C3CO3)c2)n2ncc(C(=O)c3cccs3)c2n1` (stereo not shown) [Example 278, {3-[5-Methyl-3-(2-thienylcarbonyl)pyrazolo[1,5-a]pyrimidin-7-yl]phenyl}-2-oxiranecarboxamide], the IC50 is less than 1 µM.

Still in this test, the particulars now being: Homo sapiens, 80S14, 120 h, read-out: IC50 for 80S14 (uM).
In the case of `CCC(=O)N(C)c1cccc(-c2ccnc3c(C(=O)c4cccs4)cnn23)c1` [Example 237, N-Methyl-N-[3-[3-(2-thienylcarbonyl)-pyrazolo[1,5-a]pyrimidin-7-yl]phenyl}-propanamide], the IC50 lay within 1 to 10 µM. Turning to `CC(=O)N(C)c1cccc(-c2ccnc3c(C(=O)c4cccs4)cnn23)c1` [Example 238, N-Methyl-N-[3-[3-(2-thienylcarbonyl)-pyrazolo[1,5-a]pyrimidin-7-yl]phenyl}-acetamide], the IC50 was 10 to 50 µM.

For `CC(C)C(=O)Nc1cccc(-c2ccnc3c(C(=O)c4ccco4)cnn23)c1` [Example 241, N-[3-[3-(2-Furanylcarbonyl)pyrazolo-[1,5-a]pyrimidin-7-yl]phenyl}-2-methyl-propanamide], the IC50 fell in the range of 1 to 10 µM. On to `CC(C)(C)C(=O)Nc1cccc(-c2ccnc3c(C(=O)c4ccccc4)cnn23)c1` [Example 242, N-[3-(3-Benzoylpyrazolo[1,5-a]-pyrimidin-7-yl)phenyl]-2,2-dimethyl-propanamide], for which the IC50 is 1 to 10 µM.

On to `CC(C)(C)C(=O)Nc1cccc(-c2ccnc3c(C(=O)c4ccco4)cnn23)c1` [Example 243, N-[3-[3-(2-Furanylcarbonyl)pyrazolo-[1,5-a]pyrimidin-7-yl]phenyl}-2,2-dimethyl-propanamide], for which the IC50 was in the range of 1 to 10 µM.

As for `CC(=O)Nc1cccc(-c2ccnc3c(C(=O)c4cccs4)cnn23)c1` [Example 250, N-[3-[3-(2-Thienylcarbonyl)pyrazolo[1,5-a]pyrimidin-7-yl]phenyl}-acetamide], the IC50 was in the range of 1 to 10 µM. Still for that read-out and setting: next, `CCC(=O)Nc1cccc(-c2ccnc3c(C(=O)c4cccs4)cnn23)c1` [Example 251, N-[3-[3-(2-Thienylcarbonyl)pyrazolo[1,5-a]pyrimidin-7-yl]phenyl}-propanamide]: less than 1 µM.

Consider `O=CNc1cccc(-c2ccnc3c(C(=O)c4cccs4)cnn23)c1` [Example 260, N-[3-[3-(2-Thienylcarbonyl)pyrazolo[1,5-a]pyrimidin-7-yl]phenyl}-formamide], for which the IC50 is 1 to 10 µM.

Still in this test, the particulars now being: Homo sapiens, 120 h; 80S14 (p21-deficient) cells, 5 days, SRB; class symbols; read-out: IC50 for 80S14.
Consider `CN(C(=O)C1CCC1)c1cccc(-c2ccnc3c(C#N)cnn23)c1` [Example 234, N-[3-(3-Cyanopyrazolo[1,5-a]-pyrimidin-7-yl)phenyl]-N-methyl-cyclobutanecarboxamide], for which the IC50 is 1 to 10 µM. In the case of `CN(C(=O)C1CC1)c1cccc(-c2ccnc3c(C(=O)c4ccccc4)cnn23)c1` [Example 236, N-[3-(3-benzoylpyrazolo[1,5-a]-pyrimidin-7-yl)phenyl]-N-methyl-cyclopropanecarboxamide], the IC50 was in the range of 10 to 50 µM. As for `CN(C(=O)O)c1cccc(-c2ccnc3c(C(=O)c4cccs4)cnn23)c1` [Example 239, Methyl [3-[3-(2-thienylcarbonyl)pyrazolo-[1,5-a]pyrimidin-7-yl]phenyl}-carbamic acid], the IC50 lay within 1 to 10 µM. Still for that read-out and setting: next, `COc1ccc(-c2ccnc3c(C(=O)c4cccs4)cnn23)c(OC)c1` [Example 246, [7-(2,4-dimethoxyphenyl)pyrazolo[1,5-a]-pyrimidin-3-yl}-2-thienyl-methanone]: 10 to 50 µM; `Cc1ccc(C(=O)c2cnn3c(-c4cccc(NC(=O)C5CC5)c4)ccnc23)s1` [Example 252, N-[3-[3-[(5-Methyl-2-thienyl)carbonyl]pyrazolo[1,5-a]pyrimidin-7-yl]phenyl}-cyclopropanecarboxamide]: 1 to 10 µM; `CCN(C(=O)C1CC1)c1cccc(-c2ccnc3c(C(=O)c4ccccc4)cnn23)c1` [Example 253, N-[3-(3-Benzoylpyrazolo[1,5-a]pyrimidin-7-yl)phenyl]-N-ethyl-cyclopropanecarboxamide]: 10 to 50 µM. Turning to `CCN(C(=O)C1CC1)c1cccc(-c2ccnc3ccnn23)c1` [Example 254, N-Ethyl-N-(3-pyrazolo[1,5-a]pyrimidin-7-ylphenyl)-cyclopropanecarboxamide], the IC50 was 10 to 50 µM. The same measure, in the same setting: next, `CCN(C(=O)C1CC1)c1cccc(-c2ccnc3c(Cl)cnn23)c1` [Example 255, N-[3-(3-Chloropyrazolo[1,5-a]pyrimidin-7-yl)phenyl]-N-ethyl-cyclopropanecarboxamide]: 10 to 50 µM; `CCN(C(=O)C1CC1)c1cccc(-c2ccnc3c(C#N)cnn23)c1` [Example 256, N-[3-(3-Cyanopyrazolo[1,5-a]pyrimidin-7-yl)phenyl]-N-ethyl-cyclopropanecarboxamide]: 10 to 50 µM. Consider `CCN(C(=O)C1CC1)c1cccc(-c2ccnc3c(C(=O)c4ccco4)cnn23)c1` [Example 257, N-Ethyl-N-[3-[3-(2-furanylcarbonyl)pyrazolo[1,5-a]pyrimidin-7-yl]phenyl}-cyclopropanecarboxamide], for which the IC50 is 10 to 50 µM.

As for `C#CCN(C(=O)C1CC1)c1cccc(-c2ccnc3c(C(=O)c4cccs4)cnn23)c1` [Example 259, N-2-Propynyl-N-[3-[3-(2-thienylcarbonyl)pyrazolo[1,5-a]pyrimidin-7-yl]phenyl}-cyclopropanecarboxamide], the IC50 was in the range of 1 to 10 µM.

In the case of `CCOc1cccc(-c2ccnc3c(C(=O)c4cccs4)cnn23)c1` [Example 263, [7-(3-Ethoxyphenyl)pyrazolo[1,5-a]pyrimidin-3-yl]-2-thienyl-methanone], the IC50 lay in the range of 1 to 10 µM. Take `COCCOc1cccc(-c2ccnc3c(C(=O)c4cccs4)cnn23)c1` [Example 264, [7-[3-(2-Methoxyethoxy)phenyl]pyrazolo[1,5-a]pyrimidin-3-yl]-2-thienyl-methanone]: the IC50 fell in the range of 1 to 10 µM. Same read-out and setting: to `O=C(c1cccs1)c1cnn2c(-c3cccc(OC4CCCC4)c3)ccnc12` [Example 265, [7-[3-(Cyclopentyloxy)phenyl]pyrazolo[1,5-a]pyrimidin-3-yl]-2-thienyl-methanone] belongs 1 to 10 µM.

`CNc1cccc(-c2ccnc3c(C(=O)c4cccs4)cnn23)c1` [Example 266, [7-[3-(Methylamino)phenyl]pyrazolo[1,5-a]pyrimidin-3-yl]-2-thienyl-methanone]: the IC50 was in the range of 1 to 10 µM. For `Cc1ccc(C(=O)c2cnn3c(-c4cccc(N(C)C(=O)C5CC5)c4)ccnc23)cc1` [Example 268, N-Methyl-N-[3-[3-(4-methylbenzoyl)pyrazolo[1,5-a]pyrimidin-7-yl]phenyl}-cyclopropanecarboxamide], the IC50 lay in the range of 10 to 50 µM. Regarding `O=C(c1cccs1)c1cnn2c(-c3cccc(-n4cccc4)c3)ccnc12` [Example 270, [7-[3-(1H-Pyrrol-1-yl)phenyl]pyrazolo[1,5-a]pyrimidin-3-yl]-2-thienyl-methanone], the IC50 was in the range of 1 to 10 µM. Consider `CCNc1ccc(-c2ccnc3c(C(=O)c4cccs4)cnn23)cc1` [Example 271, [7-[4-(Ethylamino)phenyl]pyrazolo[1,5-a]pyrimidin-3-yl]-2-thienyl-methanone], for which the IC50 lay in the range of 10 to 50 µM. Same read-out and setting: next, `C=CC(=O)Nc1cccc(-c2ccnc3c(C(=O)c4cccs4)cnn23)c1` [Example 272, N-{3-[3-(2-Thienylcarbonyl)pyrazolo[1,5-a]pyrimidin-7-yl]phenyl}acrylamide]: less than 1 µM. Take `O=C(c1cccs1)c1cnn2c(-c3cccc(NC(=O)C4CO4)c3)ccnc12` (stereo not shown) [Example 277, N-{3-[3-(2-Thienylcarbonyl)pyrazolo[1,5-a]pyrimidin-7-yl]phenyl}-2-oxiranecarboxamide]: the half-inhibitory concentration (IC50) is less than 1 µM. In the case of `Cc1cc(-c2cccc(NC(=O)C3CCC3)c2)n2ncc(C(=O)c3cccs3)c2n1` [Example 279, N-{3-[5-Methyl-3-(2-thienylcarbonyl)pyrazolo[1,5-a]pyrimidin-7-yl]phenyl}cyclobutanecarboxamide], the IC50 was less than 1 µM. Turning to `O=C(Nc1cccc(-c2ccnc3c(C(=O)c4cccs4)cnn23)c1)c1cc(C(F)(F)F)ccc1C(F)(F)F` [Example 280, N-{3-[3-(2-Thienylcarbonyl)pyrazolo[1,5-a]pyrimidin-7-yl]phenyl}-2,5-bis(trifluoromethyl)benzamide], the IC50 was in the range of 10 to 50 µM.

Take `O=C(Nc1cccc(-c2ccnc3c(C(=O)c4cccs4)cnn23)c1)c1cccc(Br)c1` [Example 286, 3-Bromo-N-{3-[3-(2-thienylcarbonyl)pyrazolo[1,5-a]pyrimidin-7-yl]phenyl}benzamide]: the IC50 is less than 1 µM. For the compound `CC(C)(C)c1ccc(C(=O)Nc2cccc(-c3ccnc4c(C(=O)c5cccs5)cnn34)c2)cc1` [Example 287, 4-(tert-butyl)-N-{3-[3-(2-thienylcarbonyl)pyrazolo[1,5-a]pyrimidin-7-yl]phenyl}benzamide], the IC50 lay in the range of 10 to 50 µM. With `O=C(Nc1cccc(-c2ccnc3c(C(=O)c4cccs4)cnn23)c1)c1ccc(Cl)cc1Cl` [Example 289, 2,4-Dichloro-N-{3-[3-(2-thienylcarbonyl)pyrazolo[1,5-a]pyrimidin-7-yl]phenyl}benzamide], the IC50 is 1 to 10 µM.
